From US11718622B2, “Heterocyclic adenosine receptor antagonists” (Exelixis, Inc., priority 2020, dated 2023)

How the values were obtained:
[1] = target: Adenosine A2B (ADORA2B) receptor (Homo sapiens (Human), UniProt P29275); experiment: ADORA2B Receptor Binding Assay; details: radioligand binding, membrane stock
Experimental: ADORA2B Receptor Binding Assay
100 μL of Adenosine A2B membrane stock was dispensed into individual wells of an assay plate. 1 μL of each compound (test compounds, high control compound, low control compound) was then transferred into individual wells, followed by 100 μL of radio-labeled ligand. Plates were then sealed, and incubated at room temperature for 1 hour. Unifilter-96 GF/C filter plates were pre-soaked with 50 μL of 0.5% BSA per well for at least 30 min at room temperature. When binding assays were completed, reaction mixtures were filtered through GF/C plates using a Perkin Elmer Filtermate Harvester, and then each plate was washed 4× with cold wash buffer. Filter plates were then dried for 1 hour at 50° C. After drying, the bottom of the filter plate wells was sealed using Perkin Elmer Unifilter-96 backing seal tape. 50 μL of Perkin Elmer Microscint 20 cocktail was then added, and the top of the filter plate was then sealed using Perkin Elmer TopSeal-A sealing film. ^3H trapped on the filter was counted using a Perkin Elmer MicroBeta2 Reader. Data analysis was performed using GraphPad Prism 5 software, and the “Inhibition[% Control]” was calculated using the following equation: % Inh=(1−Background subtracted Assay value/Background subtracted HC value)*100.

[2] = target: Adenosine A2a (ADORA2A) receptor (Homo sapiens (Human), UniProt P29274); experiment: ADORA2A Receptor Binding Assay; details: radioligand binding, membrane stock
Experimental: ADORA1A and ADORA2A Receptor Binding Assay
2 μL of each compound (test compounds, high control compound, low control compound) was transferred into individual wells of an assay plate. Also to each individual well, 98 μL of Adenosine A1a membrane stock (for ADORA1A Receptor Binding Assay) or Adenosine A2a membrane stock (for ADORA2A Receptor Binding Assay) was dispensed, followed by 100 μL of radio-labeled ligand. Plates were then sealed, and incubated at room temperature for 1 hour (for ADORA1A Receptor Binding Assay) or 2 hours (for ADORA2A Receptor Binding Assay). Unifilter-96 GF/C filter plates were pre-soaked with 50 μL of 0.3% PEI per well for at least 30 min at room temperature. When binding assays were completed, reaction mixtures were filtered through GF/C plates using a Perkin Elmer Filtermate Harvester, and then each plate was washed 4× with cold wash buffer. Filter plates were then dried for 1 hour at 50° C. After drying, the bottom of the filter plate wells was sealed using Perkin Elmer Unifilter-96 backing seal tape. 50 μL of Perkin Elmer Microscint 20 cocktail was then added, and the top of the filter plate was then sealed using Perkin Elmer TopSeal-A sealing film. ^3H trapped on the filter was counted using a Perkin Elmer MicroBeta2 Reader. Data analysis was performed using GraphPad Prism 5 software, and the “Inhibition [% Control]” was calculated using the following equation: % Inh=(1−Background subtracted Assay value/Background subtracted HC value)*100.

Adenosine A2a (ADORA2A) receptor, sequence (P29274 whole entry): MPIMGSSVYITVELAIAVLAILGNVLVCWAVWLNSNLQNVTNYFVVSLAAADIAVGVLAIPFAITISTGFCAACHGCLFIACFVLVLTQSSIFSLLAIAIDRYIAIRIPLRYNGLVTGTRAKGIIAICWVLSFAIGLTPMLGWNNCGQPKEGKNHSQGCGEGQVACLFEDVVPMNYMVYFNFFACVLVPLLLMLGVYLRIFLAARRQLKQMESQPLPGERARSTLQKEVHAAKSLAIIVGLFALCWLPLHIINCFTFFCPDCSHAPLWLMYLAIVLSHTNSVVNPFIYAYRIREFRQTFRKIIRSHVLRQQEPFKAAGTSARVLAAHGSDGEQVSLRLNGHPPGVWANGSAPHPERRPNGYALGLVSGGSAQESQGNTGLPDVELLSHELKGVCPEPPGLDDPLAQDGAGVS
Adenosine A2B (ADORA2B) receptor, sequence (P29275 whole entry): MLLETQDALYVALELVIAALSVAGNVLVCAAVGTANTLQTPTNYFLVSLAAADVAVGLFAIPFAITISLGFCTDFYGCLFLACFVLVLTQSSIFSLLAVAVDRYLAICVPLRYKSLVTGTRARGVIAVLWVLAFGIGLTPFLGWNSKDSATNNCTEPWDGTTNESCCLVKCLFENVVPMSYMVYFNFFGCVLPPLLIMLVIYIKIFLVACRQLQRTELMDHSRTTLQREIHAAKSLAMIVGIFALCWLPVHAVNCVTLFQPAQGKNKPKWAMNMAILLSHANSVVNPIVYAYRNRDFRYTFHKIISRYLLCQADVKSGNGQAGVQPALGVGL

Compound | IC50 [1] | IC50 [2]
Cc1nc2cc(NC(=O)C3CC3)nc(-c3ccco3)n2n1 [Compound 29, N-[5-(furan-2-yl)-2-methyl-[1,2,4]triazolo[1,5-c]pyrimidin-7-yl]cyclopropanecarboxamide] | < 0.01 µM | < 0.01 µM
Cc1nc2c(F)c(N)nc(-c3ccc(C)o3)n2n1 [Compound 30, 8-fluoro-2-methyl-5-(5-methylfuran-2-yl)-[1,2,4]triazolo[1,5-c]pyrimidin-7-amine] | 0.01 to 0.1 µM | < 0.01 µM
Cc1nc2c(C(N)=O)c(N)nc(-c3ccc(C)o3)n2n1 [Compound 32, 7-amino-2-methyl-5-(5-methylfuran-2-yl)-[1,2,4]triazolo[1,5-c]pyrimidine-8-carboxamide] | 0.1 to 1 µM | 0.1 to 1 µM
Cc1nc2c(Cl)c(N)nc(-c3ccccc3)n2n1 [Compound 33, 8-chloro-2-methyl-5-phenyl-[1,2,4]triazolo[1,5-c]pyrimidin-7-amine] | 0.01 to 0.1 µM | < 0.01 µM
CC(=O)Nc1cc2nc(C(C)C)nn2c(-c2ccc(C)o2)n1 [Compound 34, N-[5-(5-methylfuran-2-yl)-2-propan-2-yl-[1,2,4]triazolo[1,5-c]pyrimidin-7-yl]acetamide] | < 0.01 µM | < 0.01 µM
Cc1nc2c3cc[nH]c3nc(-c3ccc(C)o3)n2n1 [Compound 35, 4-methyl-7-(5-methylfuran-2-yl)-3,5,6,8,10-pentazatricyclo[7.3.0.0^2,6]dodeca-1(9),2,4,7,11-pentaene] | < 0.01 µM | < 0.01 µM
Cc1ccc(-c2nc3c(c4nc(C(C)C)nn24)C(C)(C)CN3)o1 [Compound 36, 12,12-dimethyl-7-(5-methylfuran-2-yl)-4-propan-2-yl-3,5,6,8,10-pentazatricyclo[7.3.0.0^2,6]dodeca-1(9),2,4,7-tetraene] | 0.1 to 1 µM | 0.01 to 0.1 µM
CC(=O)Nc1cc2nc(C)nn2c(-c2ccco2)n1 [Compound 37, N-[5-(furan-2-yl)-2-methyl-[1,2,4]triazolo[1,5-c]pyrimidin-7-yl]acetamide] | 0.01 to 0.1 µM | < 0.01 µM
Cc1nc2cc(NC(=O)C3CC3)nc(-c3ccc(C4CC4)o3)n2n1 [Compound 38, N-[5-(5-cyclopropylfuran-2-yl)-2-methyl-[1,2,4]triazolo[1,5-c]pyrimidin-7-yl]cyclopropanecarboxamide] | 0.01 to 0.1 µM | < 0.01 µM
Cc1nc2c(F)c(NC(=O)C3CC3)nc(-c3ccc(C)o3)n2n1 [Compound 39, N-[8-fluoro-2-methyl-5-(5-methylfuran-2-yl)-[1,2,4]triazolo[1,5-c]pyrimidin-7-yl]cyclopropanecarboxamide] | 0.01 to 0.1 µM | < 0.01 µM
Cc1nc2c(Cl)c(N)nc(-c3ccc(C)s3)n2n1 [Compound 40, 8-chloro-2-methyl-5-(5-methylthiophen-2-yl)-[1,2,4]triazolo[1,5-c]pyrimidin-7-amine] | < 0.01 µM | < 0.01 µM
CC(=O)Nc1cc2nc(C(F)(F)F)nn2c(-c2ccc(C)o2)n1 [Compound 41, N-[5-(5-methylfuran-2-yl)-2-(trifluoromethyl)-[1,2,4]triazolo[1,5-c]pyrimidin-7-yl]acetamide] | < 0.01 µM | < 0.01 µM
Cc1ccc(-c2nc(N)c(Cl)c3nc(C(F)(F)F)nn23)o1 [Compound 42, 8-chloro-5-(5-methylfuran-2-yl)-2-(trifluoromethyl)-[1,2,4]triazolo[1,5-c]pyrimidin-7-amine] | < 0.01 µM | < 0.01 µM
Cc1nc2cc(NC(=O)C3CC3)nc(-c3ccc(C(C)(C)C)o3)n2n1 [Compound 43, N-[5-(5-tert-butylfuran-2-yl)-2-methyl-[1,2,4]triazolo[1,5-c]pyrimidin-7-yl]cyclopropanecarboxamide] | > 1 µM | 0.01 to 0.1 µM
CC(=O)Nc1cc2nc(C)nn2c(-c2cnc(C)o2)n1 [Compound 44, N-[2-methyl-5-(2-methyl-1,3-oxazol-5-yl)-[1,2,4]triazolo[1,5-c]pyrimidin-7-yl]acetamide] | 0.01 to 0.1 µM | 0.01 to 0.1 µM
Cc1nc2c3cc(C)[nH]c3nc(-c3ccc(C)o3)n2n1 [Compound 45, 4,11-dimethyl-7-(5-methylfuran-2-yl)-3,5,6,8,10-pentazatricyclo[7.3.0.0^2,6]dodeca-1(9),2,4,7,11-pentaene] | < 0.01 µM | < 0.01 µM

Compound | IC50 [1] | IC50 [2]
CC(=O)Nc1cc2nc(C(C)C)nn2c(-c2cnc(C)o2)n1 [Compound 47, N-[5-(2-methyl-1,3-oxazol-5-yl)-2-propan-2-yl-[1,2,4]triazolo[1,5-c]pyrimidin-7-yl]acetamide] | 0.01 to 0.1 µM | < 0.01 µM
CC(=O)Nc1cc2nc(C(C)C)nn2c(-c2ccco2)n1 [Compound 48, N-[5-(furan-2-yl)-2-propan-2-yl-[1,2,4]triazolo[1,5-c]pyrimidin-7-yl]acetamide] | < 0.01 µM | < 0.01 µM
CC(=O)Nc1cc2nc(C(C)C)nn2c(-c2cnco2)n1 [Compound 49, N-[5-(1,3-oxazol-5-yl)-2-propan-2-yl-[1,2,4]triazolo[1,5-c]pyrimidin-7-yl]acetamide] | 0.1 to 1 µM | 0.01 to 0.1 µM
Cc1ccc(-c2nc(NC(=O)C3CC3)cc3nc(C4CCOC4)nn23)o1 (centres unmarked) [Compound 50, N-[5-(5-methylfuran-2-yl)-2-(oxolan-3-yl)-[1,2,4]triazolo[1,5-c]pyrimidin-7-yl]cyclopropanecarboxamide] | 0.01 to 0.1 µM | < 0.01 µM
CC(=O)Nc1cc2nc(C)nn2c(-c2cnco2)n1 [Compound 51, N-(2-methyl-5-(oxazol-5-yl)-[1,2,4]triazolo[1,5-c]pyrimidin-7-yl)acetamide] | > 1 µM | 0.1 to 1 µM
Cc1nc2cc(NC(=O)C3CC3)nc(-c3ccc(Br)o3)n2n1 [Compound 52, N-[5-(5-bromofuran-2-yl)-2-methyl-[1,2,4]triazolo[1,5-c]pyrimidin-7-yl]cyclopropanecarboxamide] | < 0.01 µM | < 0.01 µM
Cc1nc2cc(NC(=O)C3CC3)nc(-c3cccc(C#N)c3)n2n1 [Compound 53, N-[5-(3-cyanophenyl)-2-methyl-[1,2,4]triazolo[1,5-c]pyrimidin-7-yl]cyclopropanecarboxamide] | 0.1 to 1 µM | 0.01 to 0.1 µM
Cc1ccc(-c2nc(NC(=O)C3CC3)cc3nc(C4CCOCC4)nn23)o1 [Compound 54, N-[5-(5-methylfuran-2-yl)-2-(oxan-4-yl)-[1,2,4]triazolo[1,5-c]pyrimidin-7-yl]cyclopropanecarboxamide] | 0.1 to 1 µM | < 0.01 µM
Cc1nc2cc(NC(=O)C3CC3)nc(-c3ccc(C(C)C)o3)n2n1 [Compound 55, N-[2-methyl-5-(5-propan-2-ylfuran-2-yl)-[1,2,4]triazolo[1,5-c]pyrimidin-7-yl]cyclopropanecarboxamide] | 0.1 to 1 µM | < 0.01 µM
Cc1nc2cc(NC(=O)C3CC3)nc(-c3ccc(C#N)cc3)n2n1 [Compound 56, N-[5-(4-cyanophenyl)-2-methyl-[1,2,4]triazolo[1,5-c]pyrimidin-7-yl]cyclopropanecarboxamide] | > 1 µM | 0.1 to 1 µM
Cc1cncc(-c2nc(N)c(Cl)c3nc(C)nn23)c1 [Compound 57, 8-chloro-2-methyl-5-(5-methylpyridin-3-yl)-[1,2,4]triazolo[1,5-c]pyrimidin-7-amine] | > 1 µM | > 1 µM
CC(C)c1nc2cc(NC(=O)C3CC3)nc(-c3ccco3)n2n1 [Compound 58, N-[5-(furan-2-yl)-2-propan-2-yl-[1,2,4]triazolo[1,5-c]pyrimidin-7-yl]cyclopropanecarboxamide] | < 0.01 µM | < 0.01 µM
CC(=O)Nc1cc2nc(C(F)(F)F)nn2c(-c2ccco2)n1 [Compound 59, N-[5-(furan-2-yl)-2-(trifluoromethyl)-[1,2,4]triazolo[1,5-c]pyrimidin-7-yl]acetamide] | 0.01 to 0.1 µM | < 0.01 µM
Cc1nc2cc(NC(=O)C3COC3)nc(-c3ccc(C)o3)n2n1 [Compound 60, N-[2-methyl-5-(5-methylfuran-2-yl)-[1,2,4]triazolo[1,5-c]pyrimidin-7-yl]oxetane-3-carboxamide] | 0.01 to 0.1 µM | < 0.01 µM
CC(=O)Nc1cc2nc(C3CC3)nn2c(-c2ccc(C)o2)n1 [Compound 61, N-[2-cyclopropyl-5-(5-methylfuran-2-yl)-[1,2,4]triazolo[1,5-c]pyrimidin-7-yl]acetamide] | 0.01 to 0.1 µM | < 0.01 µM
